Earlier results, collected in patent publication EP0496548A1, “Carbacyclin analogs” (PURDUE RESEARCH FOUNDATION, priority 1991, dated 1992).

Conditions: in vivo

Row | half-life ('generally') [min] | SMILES | serum half-life (attributed to enzymatic oxidation)
1 | 2 to 3 | CCCCC[C@H](O)/C=C/[C@@H]1[C@H]2C/C(=C/CCCC(=O)O)O[C@H]2C[C@H]1O [prostacyclin, Prostacyclin] | –
2 | – | CCCCC[C@H](O)/C=C/[C@@H]1[C@H]2C/C(=C/CCCC(=O)O)C[C@H]2C[C@H]1O [carbacyclin] | comparable to that of prostacyclin
